Assay results reported in patent US20240132518A1, “CEPHALOSPORIN ANTIBACTERIAL COMPOUND AND PREPARATION METHOD THEREFOR” (priority 2021, published 2024).
Values after ≈ are worked out from the molar mass of the structure shown. Where two headings read alike, the source gives them in different places.

Key:
[1] = test system: Carbapenem-resistant Pseudomonas aeruginosa (CRPA); assay: Antibacterial MIC assay (ID-CAMHB), carbapenem-resistant Pseudomonas aeruginosa; format: cell-based
Protocol: (§1) 1. The test compounds were dissolved in sterile normal saline, vortexed for uniformly mixing, and diluted in a 2-fold dilution with the sterile normal saline (11 concentration points in total). The test concentration range was 32-0.031 μg/mL, and two duplicate wells were set for each concentration. Additional wells without drug dosing were set as growth controls.
(§2) 2. 4 μL of the diluent was added to 196 μL of the bacterial suspension in a 96-well plate (the bacterial count in the bacterial suspension was 2-8×10^5 colony forming units/mL).
(§3) The minimum inhibitory concentration (MIC) assay was performed with reference to the Clinical and Laboratory Standards Institute (CLSI) guidelines.

[2] = test system: Carbapenem-resistant Acinetobacter baumannii (CRAB); assay: Antibacterial MIC assay (ID-CAMHB), carbapenem-resistant Acinetobacter baumannii; format: cell-based
Protocol: as §1, §2, §3

[3] = test system: Control strain (Pseudomonas aeruginosa) ATCC 27853; assay: Antibacterial MIC assay (ID-CAMHB), control strain Pseudomonas aeruginosa; format: cell-based; details: ATCC27853
Protocol: as §1, §2, §3

[4] = test system: Control strain (Escherichia coli) ATCC 25922; assay: Antibacterial MIC assay (ID-CAMHB), control strain Escherichia coli; format: cell-based
Protocol: as §1, §2, §3

[5] = Pharmacokinetic study in cynomolgus monkeys; format: in vivo; details: cynomolgus monkey, plasma, 10 mg/kg single intravenous infusion, individual animals
Protocol: An appropriate amount of a test compound was weighed precisely and added to a container, and 0.9% sodium chloride injection and 0.2 M NaOH solution were added thereto in an ice bath until the test compound was completely dissolved, so that a sample solution at a concentration of 2 mg/mL was obtained followed by storage at 2-8° C. for later use.
• Species and strain: cynomolgus monkey • Animal grade: general grade • Animal source: Guangxi Xiongsen Primate Experimental Animal Breeding Development Co., Ltd. • Number of the using of laboratory animal: SYXK (Su) 2019-0012
6 cynomolgus monkeys (half male and half female) were selected and randomly divided into 3 groups with 1 animal/sex in each group. The cynomolgus monkeys were administered with the test sample at a dose of 10 mg/kg by the single intravenous infusion. Blood samples were collected from each group of animals at the following time points: before administration, and 5 min, 15 min, 0.5 h, 1 h, 2 h, 4 h, 6 h, and 8 h after administration. In the test, the concentration of each test compound in the plasma of the cynomolgus monkey was detected by the LC-MS/MS method, and the lower limits of quantification of the analysis methods for the plasma samples were all 1 μg/mL. The plasma concentration data were analyzed by the non-compartmental analysis (NCA) of the analysis software for pharmacokinetic data, WinNonlin, pharmacokinetic parameters were calculated, and pharmacokinetic characteristics of the test compounds in cynomolgus monkeys after administration were investigated, with the results shown in the following table.

[6] = test system: Carbapenem-resistant Enterobacteriaceae (CRE, Klebsiella pneumoniae); assay: Antibacterial MIC assay (ID-CAMHB), carbapenem-resistant Enterobacteriaceae; format: cell-based
Protocol: as §1, §2, §3

[7] = strain FDA-CDC AR-BANK#0439, AMR gene aac(6′)-Il, aadA1b, BCR1, IMP-18, OXA-50
[8] = strain FDA-CDC AR-BANK#0457, AMR gene aadA6, VIM-2
[9] = strain FDA-CDC AR-BANK#0052, AMR gene OXA-58, OXA-100, sul2
[10] = strain FDA-CDC AR-BANK#0070, AMR gene OXA-58, OXA-100, sul2
[11] = both sexes, cynomolgus, iv, 10 mg/kg
[12] = strain FDA-CDC AR-BANK#0361, AMR gene TEM-1, SHV-12, KPC-2
[13] = strain FDA-CDC AR-BANK#0362, AMR gene TEM-1, SHV-11, KPC-2
[14] = strain FDA-CDC AR-BANK#0363, AMR gene TEM-1, SHV-12, KPC-2
[15] = strain FDA-CDC AR-BANK#0438, AMR gene aph(3′)-Ia, dfrA12, KPC-3, OmpK35, oqxA, oqxB, SHV-11
[16] = strain FDA-CDC AR-BANK#0453, AMR gene KPC-3, OmpK35, oqxA, oqxB, SHV-11, TEM-1B

CC(C)(O/N=C(\C(=O)N[C@@H]1C(=O)N2C(C(=O)[O-])=C(C[N+]3(CCN(CCCNC(=O)c4ccc(O)c(O)c4Cl)C(=O)c4ccc(O)c(O)c4Cl)CCCC3)CS[C@H]12)c1csc(N)n1)C(=O)O [Compound 1]
MIC [1, 7]: 0.125 µg/mL (≈ 0.128 µM)
MIC ([1]; strain FDA-CDC AR-BANK#0441, AMR gene KPC-2, read-out: MIC): 2 µg/mL (≈ 2.04 µM)
MIC ([1]; strain FDA-CDC AR-BANK#0444, AMR gene aac(6′)-Il, dfrB5, OXA-4, tet(G), VIM-2, read-out: MIC): 2 µg/mL (≈ 2.04 µM)
MIC [1, 8]: 0.125 µg/mL (≈ 0.128 µM)
MIC ([2]; strain FDA-CDC AR-BANK#0036, AMR gene strB, OXA-65, OXA-24, strA, sul2, read-out: MIC): 0.25 µg/mL (≈ 0.255 µM)
MIC [2, 9]: 0.125 µg/mL (≈ 0.128 µM)
MIC ([2]; strain FDA-CDC AR-BANK#0063, AMR gene OXA-23, OXA-65, OXA-24, sul2, read-out: MIC): 32 µg/mL (≈ 32.7 µM)
MIC [2, 10]: 0.125 µg/mL (≈ 0.128 µM)
MIC ([2]; strain FDA-CDC AR-BANK#0101, AMR gene strB, OXA-65, OXA-24, strA, sul2, read-out: MIC): 1 µg/mL (≈ 1.02 µM)
MIC [3]: 0.125 µg/mL (≈ 0.128 µM)
MIC ([4]; ATCC25922, ID-CAMHB, control strain ATCC 25922, read-out: MIC): 0.0625 µg/mL (≈ 0.0638 µM)
AUC(0-inf) [5, 11]: 32900 ng·h/mL
AUC(0-t) [5, 11]: 29300 ng·h/mL
clearance [5, 11]: 5.06 mL/min/kg
half-life [5, 11]: 37.2 min
Cmax ([5]; both sexes, cynomolgus, iv, 10 mg/kg, read-out: Cmax): 35500 ng/mL
MRT ([5]; both sexes, cynomolgus, iv, 10 mg/kg, read-out: MRT): 38.4 min
Vd ([5]; both sexes, cynomolgus, iv, 10 mg/kg, read-out: Vd): 0.27 L/kg
Tmax ([5]; both sexes): 4.8 min
AUC last ([5]; 10 mg/kg): 23440 ng·h/mL
AUCinf ([5]; 10 mg/kg): 25640 ng·h/mL
CL ([5]; 10 mg/kg): 6.5002 mL/min/kg
Cmax ([5]; 10 mg/kg): 30640 ng/mL
MRT ([5]; 10 mg/kg): 37.2 min
Vd ([5]; 10 mg/kg): 0.31334 L/kg
t1/2 ([5]; 10 mg/kg): 33.6 min
MIC [6, 12]: 0.5 µg/mL (≈ 0.51 µM)
MIC [6, 13]: 0.25 µg/mL (≈ 0.255 µM)
MIC [6, 14]: 0.125 µg/mL (≈ 0.128 µM)
MIC [6, 15]: 0.5 µg/mL (≈ 0.51 µM)
MIC [6, 16]: 1 µg/mL (≈ 1.02 µM)

C[C@H](CN(CCCNC(=O)c1ccc(O)c(O)c1Cl)C(=O)c1ccc(O)c(O)c1Cl)[N+]1(CC2=C(C(=O)[O-])N3C(=O)[C@@H](NC(=O)/C(=N\OC(C)(C)C(=O)O)c4csc(N)n4)[C@H]3SC2)CCCC1 [Compound 2]
MIC [1, 7]: 0.5 µg/mL (≈ 0.503 µM)
MIC ([1]; strain FDA-CDC AR-BANK#0441, AMR gene KPC-2): 8 µg/mL (≈ 8.05 µM)
MIC ([1]; strain FDA-CDC AR-BANK#0444, AMR gene aac(6′)-Il, dfrB5, OXA-4, tet(G), VIM-2): 4 µg/mL (≈ 4.02 µM)
MIC [1, 8]: 0.25 µg/mL (≈ 0.252 µM)
MIC ([2]; strain FDA-CDC AR-BANK#0036, AMR gene strB, OXA-65, OXA-24, strA, sul2): 0.5 µg/mL (≈ 0.503 µM)
MIC [2, 9]: 0.125 µg/mL (≈ 0.126 µM)
MIC ([2]; strain FDA-CDC AR-BANK#0063, AMR gene OXA-23, OXA-65, OXA-24, sul2): 4 µg/mL (≈ 4.02 µM)
MIC [2, 10]: 0.25 µg/mL (≈ 0.252 µM)
MIC ([2]; strain FDA-CDC AR-BANK#0101, AMR gene strB, OXA-65, OXA-24, strA, sul2): 1 µg/mL (≈ 1.01 µM)
MIC [3]: 0.0625 µg/mL (≈ 0.0629 µM)
MIC ([4]; ATCC25922): 0.125 µg/mL (≈ 0.126 µM)
MIC [6, 12]: 1 µg/mL (≈ 1.01 µM)
MIC [6, 13]: 0.25 µg/mL (≈ 0.252 µM)
MIC [6, 14]: 0.5 µg/mL (≈ 0.503 µM)
MIC [6, 15]: 1 µg/mL (≈ 1.01 µM)
MIC [6, 16]: 1 µg/mL (≈ 1.01 µM)
